Earlier results as cited in patent US20140093563A1, “FEBUXOSTAT COMPOSITIONS” (RANBAXY LABORATORIES LIMITED, priority 2011, published 2014).

Cc1nc(-c2ccc(OCC(C)C)c(C#N)c2)sc1C(=O)O [febuxostat, 2-(3-cyano-4-isobutyloxyphenyl)-4-methyl-5-thiazolecarboxylic acid]
Solubility (BCS): low solubility
